Test results published in ChEMBL document CHEMBL3397041, “Schiff's bases of quinazolinone derivatives: Synthesis and SAR studies of a novel series of potential anti-inflammatory and antioxidants” (Bioorg Med Chem Lett, 2015).

Experiment: Antioxidant activity assessed as DPPH scavenging activity after 30 mins by spectrophotometry
Assay type: physicochemical
Details: not given

IC50 | SMILES
247 uM/ml | COc1ccc(/C=N/NC(=O)CCCc2nc3ccccc3c(=O)[nH]2)cc1
95 uM/ml | O=C(CCCc1nc2ccccc2c(=O)[nH]1)N/N=C/c1ccc(O)c(O)c1
353 uM/ml | O=C(CCCc1nc2ccccc2c(=O)[nH]1)N/N=C/c1ccc(Cl)cc1
214 uM/ml | COc1ccc(/C=N/NC(=O)CCc2nc3ccccc3c(=O)[nH]2)cc1
238 uM/ml | O=C(CCc1nc2ccccc2c(=O)[nH]1)N/N=C/c1ccc(O)cc1
81 uM/ml | O=C(CCc1nc2ccccc2c(=O)[nH]1)N/N=C/c1cc(O)c(O)c(O)c1
1250 uM/ml | O=C(O)CCCc1nc2ccccc2c(=O)[nH]1
862 uM/ml | COC(=O)CCc1nc2ccccc2c(=O)[nH]1.Cl
316 uM/ml | O=C(CCCc1nc2ccccc2c(=O)[nH]1)N/N=C/c1ccc([N+](=O)[O-])cc1
381 uM/ml | O=C(CCc1nc2ccccc2c(=O)[nH]1)N/N=C/c1ccc(Cl)cc1
204 uM/ml | COc1cc(/C=N/NC(=O)CCc2nc3ccccc3c(=O)[nH]2)ccc1O
114 uM/ml | Cc1cc(C(C)(C)C)c(O)c(C(C)(C)C)c1 [BUTYLATED HYDROXYTOLUENE]
97 uM/ml | COc1cc(/C=N/NC(=O)CCCc2nc3ccccc3c(=O)[nH]2)cc(OC)c1O
85 uM/ml | COc1cc(/C=N/NC(=O)CCc2nc3ccccc3c(=O)[nH]2)cc(OC)c1OC
113 uM/ml | O=C(CCc1nc2ccccc2c(=O)[nH]1)N/N=C/c1ccc(O)c(O)c1
328 uM/ml | O=C(CCc1nc2ccccc2c(=O)[nH]1)N/N=C/c1ccc([N+](=O)[O-])cc1
214 uM/ml | O=C(CCCc1nc2ccccc2c(=O)[nH]1)N/N=C/c1ccc(O)cc1
88 uM/ml | COc1cc(/C=N/NC(=O)CCCc2nc3ccccc3c(=O)[nH]2)cc(O)c1O
78 uM/ml | O=C(CCCc1nc2ccccc2c(=O)[nH]1)N/N=C/c1cc(O)c(O)c(O)c1
734 uM/ml | O=C(CCc1nc2ccccc2c(=O)[nH]1)N/N=C/c1ccccc1
236 uM/ml | COc1cc(/C=N/NC(=O)CCCc2nc3ccccc3c(=O)[nH]2)ccc1O
772 uM/ml | COC(=O)CCCc1nc2ccccc2c(=O)[nH]1.Cl
1100 uM/ml | O=C(O)CCc1nc(O)c2ccccc2n1
126 uM/ml | COc1cc(/C=N/NC(=O)CCc2nc3ccccc3c(=O)[nH]2)cc(OC)c1O
106 uM/ml | COc1cc(/C=N/NC(=O)CCCc2nc3ccccc3c(=O)[nH]2)cc(OC)c1OC
568 uM/ml | O=C(CCCc1nc2ccccc2c(=O)[nH]1)N/N=C/c1ccccc1
104 uM/ml | COc1cc(/C=N/NC(=O)CCc2nc3ccccc3c(=O)[nH]2)cc(O)c1O

Experiment: Antioxidant activity assessed as ABTS scavenging activity after 6 mins by spectrophotometry
Assay type: physicochemical
Details: not given

IC50 | SMILES
180 uM/ml | COc1ccc(/C=N/NC(=O)CCCc2nc3ccccc3c(=O)[nH]2)cc1
50 uM/ml | O=C(CCCc1nc2ccccc2c(=O)[nH]1)N/N=C/c1ccc(O)c(O)c1
75 uM/ml | COc1ccc(/C=N/NC(=O)CCc2nc3ccccc3c(=O)[nH]2)cc1
105 uM/ml | O=C(CCc1nc2ccccc2c(=O)[nH]1)N/N=C/c1ccc(O)cc1
35 uM/ml | O=C(CCc1nc2ccccc2c(=O)[nH]1)N/N=C/c1cc(O)c(O)c(O)c1
270 uM/ml | O=C(CCCc1nc2ccccc2c(=O)[nH]1)N/N=C/c1ccc([N+](=O)[O-])cc1
185 uM/ml | O=C(CCc1nc2ccccc2c(=O)[nH]1)N/N=C/c1ccc(Cl)cc1
95 uM/ml | COc1cc(/C=N/NC(=O)CCc2nc3ccccc3c(=O)[nH]2)ccc1O
65 uM/ml | O=C1O[C@H]([C@@H](O)CO)C(O)=C1O [ASCORBIC ACID]
135 uM/ml | COc1cc(/C=N/NC(=O)CCCc2nc3ccccc3c(=O)[nH]2)cc(OC)c1O
55 uM/ml | COc1cc(/C=N/NC(=O)CCc2nc3ccccc3c(=O)[nH]2)cc(OC)c1OC
40 uM/ml | O=C(CCc1nc2ccccc2c(=O)[nH]1)N/N=C/c1ccc(O)c(O)c1
220 uM/ml | O=C(CCc1nc2ccccc2c(=O)[nH]1)N/N=C/c1ccc([N+](=O)[O-])cc1
170 uM/ml | O=C(CCCc1nc2ccccc2c(=O)[nH]1)N/N=C/c1ccc(O)cc1
50 uM/ml | COc1cc(/C=N/NC(=O)CCCc2nc3ccccc3c(=O)[nH]2)cc(O)c1O
40 uM/ml | O=C(CCCc1nc2ccccc2c(=O)[nH]1)N/N=C/c1cc(O)c(O)c(O)c1
265 uM/ml | O=C(CCc1nc2ccccc2c(=O)[nH]1)N/N=C/c1ccccc1
115 uM/ml | COc1cc(/C=N/NC(=O)CCCc2nc3ccccc3c(=O)[nH]2)ccc1O
280 uM/ml | COC(=O)CCCc1nc2ccccc2c(=O)[nH]1.Cl
105 uM/ml | COc1cc(/C=N/NC(=O)CCc2nc3ccccc3c(=O)[nH]2)cc(OC)c1O
60 uM/ml | COc1cc(/C=N/NC(=O)CCCc2nc3ccccc3c(=O)[nH]2)cc(OC)c1OC
240 uM/ml | O=C(CCCc1nc2ccccc2c(=O)[nH]1)N/N=C/c1ccccc1
40 uM/ml | COc1cc(/C=N/NC(=O)CCc2nc3ccccc3c(=O)[nH]2)cc(O)c1O

SMILES | IC50
O=C(O)c1cc(O)c(O)c(O)c1 [GALLIC ACID] | 60 uM/ml

Experiment: Antioxidant activity assessed as DMPD scavenging activity after 15 mins by spectrophotometry
Assay type: physicochemical
Details: not given

IC50 | SMILES
280 uM/ml | COc1ccc(/C=N/NC(=O)CCCc2nc3ccccc3c(=O)[nH]2)cc1
75 uM/ml | O=C(CCCc1nc2ccccc2c(=O)[nH]1)N/N=C/c1ccc(O)c(O)c1
300 uM/ml | O=C(CCc1nc2ccccc2c(=O)[nH]1)N/N=C/c1ccc(O)cc1
45 uM/ml | O=C(CCc1nc2ccccc2c(=O)[nH]1)N/N=C/c1cc(O)c(O)c(O)c1
290 uM/ml | COc1cc(/C=N/NC(=O)CCc2nc3ccccc3c(=O)[nH]2)ccc1O
140 uM/ml | O=C1O[C@H]([C@@H](O)CO)C(O)=C1O [ASCORBIC ACID]
225 uM/ml | COc1cc(/C=N/NC(=O)CCCc2nc3ccccc3c(=O)[nH]2)cc(OC)c1O
80 uM/ml | COc1cc(/C=N/NC(=O)CCc2nc3ccccc3c(=O)[nH]2)cc(OC)c1OC
105 uM/ml | O=C(CCc1nc2ccccc2c(=O)[nH]1)N/N=C/c1ccc(O)c(O)c1
80 uM/ml | COc1cc(/C=N/NC(=O)CCCc2nc3ccccc3c(=O)[nH]2)cc(O)c1O
45 uM/ml | O=C(CCCc1nc2ccccc2c(=O)[nH]1)N/N=C/c1cc(O)c(O)c(O)c1
280 uM/ml | COc1cc(/C=N/NC(=O)CCCc2nc3ccccc3c(=O)[nH]2)ccc1O
275 uM/ml | COc1cc(/C=N/NC(=O)CCc2nc3ccccc3c(=O)[nH]2)cc(OC)c1O
85 uM/ml | COc1cc(/C=N/NC(=O)CCCc2nc3ccccc3c(=O)[nH]2)cc(OC)c1OC
50 uM/ml | COc1cc(/C=N/NC(=O)CCc2nc3ccccc3c(=O)[nH]2)cc(O)c1O

SMILES | IC50
O=C(O)c1cc(O)c(O)c(O)c1 [GALLIC ACID] | 100 uM/ml

Experiment: Antiinflammatory activity in human erythrocytes assessed as inhibition of hypotonic solution-induced hemolysis after 10 mins by spectrophotometry
Assay type: functional, cell-based
Details: erythrocyte

SMILES | IC50
O=C(CCCc1nc2ccccc2c(=O)[nH]1)N/N=C/c1ccc(O)c(O)c1 | 300 uM/ml
O=C(CCCc1nc2ccccc2c(=O)[nH]1)N/N=C/c1ccc(Cl)cc1 | 67 uM/ml
O=C(CCc1nc2ccccc2c(=O)[nH]1)N/N=C/c1cc(O)c(O)c(O)c1 | 203 uM/ml
CC(=O)Oc1ccccc1C(=O)O [ASPIRIN] | 166 uM/ml
COC(=O)CCc1nc2ccccc2c(=O)[nH]1.Cl | 1163 uM/ml
O=C(CCCc1nc2ccccc2c(=O)[nH]1)N/N=C/c1ccc([N+](=O)[O-])cc1 | 52 uM/ml
O=C(CCc1nc2ccccc2c(=O)[nH]1)N/N=C/c1ccc(Cl)cc1 | 84 uM/ml
COc1cc(/C=N/NC(=O)CCCc2nc3ccccc3c(=O)[nH]2)cc(OC)c1O | 524 uM/ml
COc1cc(/C=N/NC(=O)CCc2nc3ccccc3c(=O)[nH]2)cc(OC)c1OC | 682 uM/ml
O=C(CCc1nc2ccccc2c(=O)[nH]1)N/N=C/c1ccc(O)c(O)c1 | 255 uM/ml
O=C(CCc1nc2ccccc2c(=O)[nH]1)N/N=C/c1ccc([N+](=O)[O-])cc1 | 54 uM/ml
COc1cc(/C=N/NC(=O)CCCc2nc3ccccc3c(=O)[nH]2)cc(O)c1O | 277 uM/ml
O=C(CCCc1nc2ccccc2c(=O)[nH]1)N/N=C/c1cc(O)c(O)c(O)c1 | 183 uM/ml
COC(=O)CCCc1nc2ccccc2c(=O)[nH]1.Cl | 975 uM/ml
COc1cc(/C=N/NC(=O)CCc2nc3ccccc3c(=O)[nH]2)cc(OC)c1O | 530 uM/ml
COc1cc(/C=N/NC(=O)CCCc2nc3ccccc3c(=O)[nH]2)cc(OC)c1OC | 613 uM/ml
COc1cc(/C=N/NC(=O)CCc2nc3ccccc3c(=O)[nH]2)cc(O)c1O | 261 uM/ml
